Results reported in article PMC12559310, “Tumor-targeted top1 inhibitor delivery with optimized parp inhibition in advanced solid tumors: a phase i trial of gapped scheduling” (Nature Communications, 2025).
Where two headings read alike, the source gives them in different places.

Key:
[1] = system: patients with advanced solid tumors; assay: Phase I dose escalation (3 + 3 design): DLTs and MTD/RP2D of CRLX101 plus olaparib; format: in vivo, human; conditions: Olaparib 250 tab bid d3-13, 17-26 combined with CRLX101 12 mg/m2; % of single-agent MTD; Current study
Description: Olaparib tablets were given at escalating doses across cohorts (as shown in Fig. 1), administered twice daily on days 3–13 and 17–26 of the treatment cycle.
A standard 3 + 3 design was used for dose escalation. […] DLTs were based on toxicities observed during the first cycle. […] Study treatment was discontinued if there was a > 3-week delay in reinstitution of treatment due to drug-related toxicity during a cycle. Dose reductions were allowed for toxicities. A maximum of two dose reductions were allowed. Dose re-escalation was not allowed.

[2] = Olaparib peak plasma concentration (2 h post-oral administration); format: in vivo, human
Experimental: Approximately 4 mL of blood was collected into a sodium heparin tube (BD Biosciences), immediately processed into plasma before storage in cryovials at − 80 °C. […] Total CPT, polymer-unconjugated CPT, and olaparib plasma concentrations were measured using previously published assays[53],[54]. Polymer-conjugated CPT plasma concentrations were obtained via subtracting the polymer-unconjugated concentration from the total CPT concentration.
First dose pharmacokinetic parameters were calculated using noncompartmental methods (Phoenix WinNonlin 8.0, Certara Pharsight Corp, Cary, NC). Any plasma concentration measured below the LLOQ was excluded from analyses. The maximum plasma concentration (CMAX) and time to CMAX (TMAX) were recorded as observed values. The area under the plasma concentration vs time curve to the last observed time point (AUCLAST) was calculated using the Linear Up Log Down trapezoidal rule. The elimination rate (kEL) was calculated as the slope of the log-transformed concentrations vs terminal time points. AUC extrapolated to time infinity (AUCINF) was calculated as AUCLAST + CLAST/kEL, where CLAST is the concentration at the last observed time point. Half-life (t1/2) was calculated as ln2/kEL. Apparent oral clearance (CL/F) was calculated as dose/AUCINF; volume of distribution at steady-state (Vss) was calculated via the product of mean residence time extrapolated to infinity (MRTINF) and […]. Pharmacokinetic parameters were calculated for each individual and summarized using the arithmetic mean ± standard deviation (SD).

SCLC cell lines = system: SCLC cell lines; parameters: method as in protocol [5]; conditions: pre-clinical models of SCLC; ref protocol [5]; cited from earlier work
CYP3A4 [3] = conditions: in vitro; cited from earlier work
CYP3A4 [4] = conditions: in vitro; cited from earlier work; remark: listed apart in the source
CYP1A2 = conditions: in vitro; cited from earlier work
CYP2B6 = conditions: in vitro; cited from earlier work
CYP3A4 [5] = conditions: in vitro; cited from earlier work; remark: listed apart in the source
P-gp = conditions: in vitro; cited from earlier work
OATP1B1 = conditions: in vitro; cited from earlier work
OCT1 = conditions: in vitro; cited from earlier work
OCT2 = conditions: in vitro; cited from earlier work
OAT3 = conditions: in vitro; cited from earlier work
MATE1 = conditions: in vitro; cited from earlier work
MATE2K = conditions: in vitro; cited from earlier work
BRCP = conditions: in vitro; cited from earlier work
anaesthetized dog = system: anaesthetized dog; parameters: method as in olaparib Investigator’s Brochure; conditions: at the doses studied, ref olaparib Investigator’s Brochure; cited from earlier work
rat = system: rat; parameters: method as in olaparib Investigator’s Brochure; conditions: rat Irwin test, at the doses studied; ref olaparib Investigator’s Brochure; cited from earlier work
target organ of toxicity = system: target organ of toxicity; parameters: method as in olaparib Investigator’s Brochure; conditions: toxicology studies; ref olaparib Investigator’s Brochure; cited from earlier work
patients = conditions: tablet BID; protocol rationale; cited from earlier work
[6] = system: patients with solid tumors; conditions: Inv New Drugs, cited from earlier work
DNA damage = system: DNA damage; parameters: method as in earlier work; conditions: preclinical studies, transient, declining thereafter; cited from earlier work

O=C(c1cc(Cc2n[nH]c(=O)c3ccccc23)ccc1F)N1CCN(C(=O)C2CC2)CC1 [olaparib]
PARPi % of MTD [1]: 83% | dose dependence of peak concentrations ([2]; 100-300 mg, 2 hours post-dose): increased proportionally with the dose | CMAX ([2]; Olaparib dose 100 mg, N 2, 2 h post-dose, mean ± SD): 2843.1 ± 947.62 ng/mL | CMAX ([2]; Olaparib dose 150 mg, N 5, 2 h post-dose, mean ± SD): 2359.8 ± 1548.0 ng/mL | CMAX ([2]; Olaparib dose 200 mg, N 3, 2 h post-dose, mean ± SD): 4496.7 ± 2375.2 ng/mL | CMAX ([2]; Olaparib dose 300 mg, N 6, 2 h post-dose, mean ± SD): 5594.6 ± 4132.4 ng/mL | Cmax at 2 h ([2]; human, plasma, oral, Olaparib dose 250 mg, N 7, 2 h post-dose, mean ± SD): 6340 ± 4870 ng/mL | single agent activity (SCLC cell lines): striking single agent activity in a majority of SCLC cell lines tested | CYP3A4 inhibition (CYP3A4 [3]): inhibits CYP3A4 in vitro | principal enzyme forming the 3 main metabolites (CYP3A4 [4]): CYP3A4 | CYP1A2 induction (CYP1A2): Induction | CYP2B6 induction (CYP2B6): Induction | CYP3A4 induction (CYP3A4 [5]): Induction | P-gp inhibition (P-gp): inhibitor | OATP1B1 inhibition (OATP1B1): inhibitor | OCT1 inhibition (OCT1): inhibitor | OCT2 inhibition (OCT2): inhibitor | OAT3 inhibition (OAT3): inhibitor | MATE1 inhibition (MATE1): inhibitor | MATE2K inhibition (MATE2K): inhibitor | BRCP inhibition (BRCP): weak inhibitor | effects on cardiovascular or respiratory parameters (anaesthetized dog): no noticeable | behavioural, autonomic or motor effects (rat): no noticeable | target organ of toxicity (target organ of toxicity): bone marrow | single-agent maximum tolerated dose (MTD) (patients): 300 mg | PARPi % of MTD ([6]; Olaparib 50 mg bid d1-5 with Irinotecan 125 mg/m2 q2w, ref Chen, 2016): 12% | PARPi % of MTD ([6]; Olaparib 50 mg qd d1-21 with Irinotecan 200 mg/m2 q3w, ref Chen, 2016): 6% | PARPi % of MTD ([6]; Olaparib 100 mg bid d1-21 with Topotecan 1 mg/m2/d1-3, ref Samol, 2012): 25%

CC[C@@]1(O)C(=O)OCc2c1cc1n(c2=O)Cc2cc3ccccc3nc2-1 [camptothecin, 20(S)-camptothecin]
time of peak of camptothecin-induced DNA damage (DNA damage): 24 to 48 h
